Laboratory results: PubChem BioAssay (NCI)
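Tested at 5 concentrations; 48 h exposure; 96-well plates; endpoints linearly interpolated, else capped at highest concentration. TGI: total growth inhibition.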

Experiments:
Test in all cases: inhibition of tumour cell growth, NCI panel, 48 h
[1] = tested on: TK-10 renal
[2] = tested on: MDA-N
[3] = tested on: SK-MEL-2 melanoma
[4] = tested on: DU-145 prostate
[5] = tested on: SNB-75 CNS
[6] = tested on: HL-60(TB) leukemia
[7] = tested on: SK-MEL-28 melanoma
[8] = tested on: SN12C renal
[9] = tested on: UO-31 renal
[10] = tested on: HCT-15 colon
[11] = tested on: U251 CNS

| Compound | TGI [1] | TGI [2] | TGI [3] | TGI [4] | TGI [5] | TGI [6] | TGI [7] | TGI [8] | TGI [9] | TGI [10] | TGI [11] |
| --- | --- | --- | --- | --- | --- | --- | --- | --- | --- | --- | --- |
| CC[C@@]1(O)C(=O)OCc2c1cc1n(c2=O)Cc2c-1nc1ccccc1c2/C=N\NC(=O)C1CCCN1 (stereo partly specified) | > 100 µM | > 100 µM | 58.4 µM | > 100 µM | 1.8 µM | > 100 µM | > 100 µM | > 48.2 µM | 8.27 µM | > 61.9 µM | 11.2 µM |
| CC(=N\N)/C(C)=N/N=C(C)/C(C)=N/N | > 100 µM | > 100 µM | > 100 µM | > 100 µM | > 100 µM | > 100 µM | > 100 µM | > 100 µM | > 100 µM | > 100 µM | > 100 µM |
| O=C(O)Cc1ccc(Nc2nc3cc(C(F)(F)F)ccc3nc2C(=O)O)cc1 | > 100 µM | > 100 µM | > 100 µM | > 100 µM | > 100 µM | > 100 µM | > 100 µM | > 100 µM | > 100 µM | > 100 µM | > 100 µM |
| Cc1ccc2c(c1)C(=O)c1nc(C)ccc1C2=O | > 100 µM | 39.9 µM | > 100 µM | > 100 µM | > 100 µM | 70.3 µM | > 100 µM | 87.9 µM | 86.2 µM | 48.1 µM | > 100 µM |
| CCOC(=O)c1c(N=P(c2ccccc2)(c2ccccc2)c2ccccc2)nnc(-c2ccccc2)c1-c1ccccc1 | > 100 µM | > 100 µM | > 100 µM | > 100 µM | > 100 µM | > 100 µM | > 100 µM | > 100 µM | > 100 µM | > 100 µM | > 100 µM |
| C#C/C=C\CCCC/C=C\C#CC#CCCCC#CC#C[C@H](COS(=O)(=O)O)OS(=O)(=O)O | > 100 µM | > 100 µM | > 100 µM | > 100 µM | > 100 µM | > 100 µM | > 100 µM | > 100 µM | > 100 µM | > 100 µM | > 100 µM |
